Laboratory results: PubChem BioAssay (NCI)
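How tested: cells in 96-well plates exposed to compound for 48 hours at five concentrations. GI50: concentration for 50% inhibition of growth. TGI denotes the concentration required for complete inhibition of growth.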

Tests used:
Experiment in all cases: DTP human tumour cell line panel, 48 h
MDA-MB-435 = test system: MDA-MB-435
SK-MEL-2 melanoma = test system: SK-MEL-2 melanoma
SF-295 CNS = test system: SF-295 CNS
OVCAR-5 ovarian = test system: OVCAR-5 ovarian
ACHN renal = test system: ACHN renal
K-562 leukemia = test system: K-562 leukemia
MDA-N = test system: MDA-N
CAKI-1 renal = test system: CAKI-1 renal
HOP-18 NSCLC = test system: HOP-18 NSCLC
DMS 114 small cell lung = test system: DMS 114 small cell lung
RXF-631 renal = test system: RXF-631 renal
KM20L2 colon = test system: KM20L2 colon
DMS 273 small cell lung = test system: DMS 273 small cell lung

SMILES | TGI (MDA-MB-435) [µM] | TGI (SK-MEL-2 melanoma) [µM] | TGI (SF-295 CNS) [µM] | TGI (OVCAR-5 ovarian) [µM] | TGI (ACHN renal) [µM] | TGI (K-562 leukemia) [µM] | TGI (MDA-N) [µM] | TGI (CAKI-1 renal) [µM] | TGI (HOP-18 NSCLC) [µM] | TGI (DMS 114 small cell lung) [µM] | TGI (RXF-631 renal) [µM] | TGI (KM20L2 colon) [µM] | TGI (DMS 273 small cell lung) [µM] | GI50 (ACHN renal) [µM] | GI50 (MDA-MB-435) [µM] | GI50 (SK-MEL-2 melanoma) [µM] | GI50 (SF-295 CNS) [µM] | GI50 (OVCAR-5 ovarian) [µM] | GI50 (K-562 leukemia) [µM] | GI50 (CAKI-1 renal) [µM]
CC(=O)c1ccc2c(c1)N(CCCN1CCN(CCO)CC1)c1ccccc1C2 | 21.7 | 33.5 | 31.8 | 32.1 | 34.8 | 30.1 | 26.7 | 26.9 |  |  |  |  |  |  |  |  |  |  |  | 
O=C(O)C(O)C(O)C(O)C(=O)CO (stereo not given) | > 100 | > 100 | > 100 | > 100 | > 100 | > 100 | > 100 | > 100 |  |  |  |  |  |  |  |  |  |  |  | 
CCOC(=O)C(=O)NCCCN1CCOCC1 |  | > 100 | > 100 | > 100 | > 100 | > 100 |  | > 100 | > 100 | > 100 | > 100 | > 100 | > 100 |  |  |  |  |  |  | 
C1=CC(=[N+]2N=C(c3ccccc3)CC2c2ccccc2)C=CC1=C1SC(c2ccccc2)(c2ccccc2)c2ccccc21 (stereo not given) | > 100 | > 100 | > 100 | > 100 | > 100 | > 100 | > 100 |  |  |  |  |  |  |  |  |  |  |  |  | 
CCCCCOC(=O)c1cc2cc(CCl)ccc2oc1=O | 14.9 | 2.08 | 60.4 | 31.6 | 8.42 | > 49.4 | 20.9 | 6.3 |  |  |  |  |  |  |  |  |  |  |  | 
Nc1cc(-c2ccc(Cl)cc2)nn1-c1nc2ccccc2nc1-c1ccccc1 | > 100 | > 100 | > 100 | > 100 | > 100 | > 100 | > 100 | > 100 |  |  |  |  |  |  |  |  |  |  |  | 
CCCSc1ccc2[nH]c(N3C(=O)/C(=C/c4cc(OC)c(OC)c(OC)c4)N=C3c3ccccc3)cc2c1 | 16 | > 37.5 | 37.1 | > 37.5 | > 37.5 | > 35.3 | 12.3 | > 37.5 |  |  |  |  |  |  |  |  |  |  |  | 
COC(CN(C=O)[C@@H](c1ccc(Cl)cc1)c1cc2ccccc2o1)OC | 35.5 | 31.9 | 31 | 29.8 | 41.7 | 53.6 | 31.6 | 34.7 |  |  |  |  |  |  |  |  |  |  |  | 
O=C1/C(=C\c2ccc(F)cc2)CCOc2c1ccc1ccccc21 | 74.3 | > 100 | 70.3 | 42.3 | > 100 | > 31.1 |  | > 81.6 |  |  |  |  |  | 47.9 |  |  |  |  |  | 
O=c1c2ccccc2[nH]c(=S)n1-c1ccc(N=Nc2cccc3cc(O)ccc23)cc1 | > 100 | > 100 | > 100 | > 100 | > 100 | > 100 | > 100 | > 100 |  |  |  |  |  |  |  |  |  |  |  | 
COC(=O)C[C@H](COCc1ccccc1)NC(=O)C[C@H](COCc1ccccc1)NC(=O)OC(C)(C)C | > 100 | > 100 | > 100 | 99.8 | > 100 | > 100 |  | > 100 |  |  |  |  |  |  |  |  |  |  |  | 
O=C1c2ccccc2C(C2c3ccccc3C(=O)c3cc(Br)ccc32)c2ccc(Br)cc21 (stereo not given) | > 100 |  | > 100 | > 100 | > 100 | > 100 | > 100 | > 100 |  |  |  |  |  |  |  |  |  |  |  | 
Nc1ccc(Oc2ccc(C34CC5CC(C3)CC(c3ccc(Oc6ccc(N)cc6)cc3)(C5)C4)cc2)cc1 | 40.7 | 36.2 | > 56.4 | 62.2 | > 51.4 | > 100 | > 45.1 | 46.3 |  |  |  |  |  |  |  |  |  |  |  | 
O=C1CC2(CCC(O)(c3cccs3)C(C(=O)c3cccs3)C2)C(=O)c2ccccc2N1 (stereo not given) | > 100 | > 100 | > 100 | > 100 |  | > 100 | > 100 | > 100 |  |  |  |  |  |  |  |  |  |  |  | 
CC(C)(C)[Si](C)(C)OCC1OC(n2cnc3c(N)ncnc32)CC1OS(C)(=O)=O (stereo not given) | > 100 | > 100 | > 100 | > 100 |  | > 100 | > 100 | > 100 |  |  |  |  |  |  |  |  |  |  |  | 
C/C(N=Nc1nc2ccccc2[nH]1)=C1/C=CC=CN1O | > 100 | > 100 | > 100 | > 100 | > 100 | > 100 | > 100 | > 100 |  |  |  |  |  |  |  |  |  |  |  | 

SMILES | TGI (MDA-MB-435) [µM] | TGI (SK-MEL-2 melanoma) [µM] | TGI (SF-295 CNS) [µM] | TGI (OVCAR-5 ovarian) [µM] | TGI (ACHN renal) [µM] | TGI (K-562 leukemia) [µM] | TGI (MDA-N) [µM] | TGI (CAKI-1 renal) [µM] | TGI (HOP-18 NSCLC) [µM] | TGI (DMS 114 small cell lung) [µM] | TGI (RXF-631 renal) [µM] | TGI (KM20L2 colon) [µM] | TGI (DMS 273 small cell lung) [µM] | GI50 (ACHN renal) [µM] | GI50 (MDA-MB-435) [µM] | GI50 (SK-MEL-2 melanoma) [µM] | GI50 (SF-295 CNS) [µM] | GI50 (OVCAR-5 ovarian) [µM] | GI50 (K-562 leukemia) [µM] | GI50 (CAKI-1 renal) [µM]
COc1ccc(C2c3cc4c(cc3OC(O)(CO)C2C(=O)O)OCO4)cc1 (stereo not given) (tested in a mixture with another compound) |  | 71.8 | 57.3 | > 100 |  | 40.2 |  |  | > 100 | 61.3 | 42.9 | > 100 | 17.7 |  |  |  |  |  |  | 
CC(C)C1OC(=O)/C=C/C=C/C=C/C=C/C=C/CC(O)C(C)C(O)CC(O)CC(O)CC(O)CC(O)CC(O)CC(O)/C=C/C1C (stereo not given) | > 100 | > 100 | > 100 | > 100 | > 100 | > 100 |  |  |  |  |  |  |  |  |  |  |  |  |  | 
CSCCC(NC(=O)OCc1ccccc1)P(=O)(O)c1ccccc1 (stereo not given) | > 100 | > 100 | > 100 | > 100 | > 100 | > 100 | > 100 | > 100 |  |  |  |  |  |  |  |  |  |  |  | 
O=S(=O)(O)c1cc(N=[N+]([O-])c2cc(S(=O)(=O)O)c3ccccc3c2)cc2ccccc12 | > 100 | 66.1 | > 100 | > 100 | > 100 | > 100 | 41.7 | 44.4 |  |  |  |  |  |  |  |  |  |  |  | 
Nc1ccc(-c2nc3cc(F)ccc3s2)cc1CO | > 100 | > 62.9 | 34.8 | > 100 | > 100 | > 100 | > 100 | > 100 |  |  |  |  |  |  |  |  |  |  |  | 
CC(=O)Oc1ccc(CO)cc1OC(C)=O |  | > 100 | > 100 | > 100 | > 100 | > 100 |  | > 100 | > 100 | > 100 | > 100 | > 100 | > 100 |  |  |  |  |  |  | 
COc1ccc(C(=O)N(C(=O)N2CCN(c3ccccc3)CC2)S(=O)(=O)c2ccccc2)cc1 | > 100 | 35 | > 100 | 70.8 | 35.2 | 94.4 | 65.4 | 54.2 |  |  |  |  |  |  |  |  |  |  |  | 
COC(OC)C1OC(CO)C(n2cc(F)c(=O)[nH]c2=O)C1O (stereo not given) | > 100 | > 100 | > 100 | > 100 | > 100 | > 100 | > 100 | > 100 |  |  |  |  |  |  |  |  |  |  |  | 
Cc1cnoc1NS(=O)(=O)c1ccc(Nc2nnc(/C=C/c3c(O)ccc4ccccc34)c(=O)n2N)cc1 | 76.3 |  | > 100 | 77.9 | 55.1 | 82.9 | 82.2 | 88.9 |  |  |  |  |  |  |  |  |  |  |  | 
COC1CC(CC2CCC(C)C(C(C)C(=O)O)O2)OC2(OC(C)(C3CCC(C)(C4OC(C5OC(O)(CO)C(C)CC5C)CC4C)O3)CC2C)C1C (stereo not given) | 11.1 | 5.22 | 11.6 | 69.6 | 45.1 | 2.03 | 4.99 | 38.3 | 11.5 | 1.03 | 12.9 | 11 | 10.4 |  |  |  |  |  |  | 
COC(=S)OC1CC(n2cnc3c(N)ncnc32)OC1CO[Si](C)(C)C(C)(C)C (stereo not given) | 42.1 | 53.8 | 34.6 | 65.4 |  | > 100 | 46.7 |  |  |  |  |  |  |  |  |  |  |  |  | 
COc1cc2c(cc1C)NC(=O)/C2=C/c1c(Cl)n(-c2ccccc2)c2ccccc12 | 45.5 | 36 | 49 | > 100 | > 100 | > 100 | 37 | > 100 |  |  |  |  |  |  |  |  |  |  |  | 
NC(=S)N1N=C(c2ccccc2O)CC1c1ccccc1 (stereo not given) | 20.2 | 20.3 | 29.2 | 50.9 | 61.8 | > 100 | 10.5 | > 100 |  |  |  |  |  |  |  |  |  |  |  | 
CCCN1C(=O)CSC1=Nc1ccc2cc3ccc(N=C4SCC(=O)N4CCC)cc3nc2c1 | > 100 | > 100 | > 100 | > 100 | > 100 | > 100 |  | > 100 |  |  |  |  |  | 29.6 | > 100 | > 100 | 30 | > 100 | 52.2 | > 100
COc1cc2c(cc1OCCCCCCCCN1C(=O)c3cccc4cccc(c34)C1=O)N=C[C@@H]1CCCN1C2=O | 51.7 | 74.6 | 43 | 66.2 | > 100 | 23.1 |  | 52.6 |  |  |  |  |  |  |  |  |  |  |  | 
N#Cc1c(N)nc2c(c1-c1ccc(Br)cc1)CSc1ccccc1-2 | 77.3 | > 100 |  |  |  | > 100 | > 100 | 68 |  |  |  |  |  |  |  |  |  |  |  | 
